How the values were obtained:
[1] = tested on: synthesis of 5-HETE by rat glycogen-elicited polymorphonuclear leukocytes (lipoxygenase); assay: inhibition of 5-HETE synthesis by rat glycogen-elicited polymorphonuclear leukocytes; format: cell-based, rat (female Wistar); details: Leukocyte, read-out: 50% Inhibitory Concentration (IC50) 5-HETE; rat peritoneal PMN, A23187 10 μM, [14C]arachidonic acid, 10 min preincubation at 37° C.
Protocol: (§1) Roy. […] Med., 74, 831 (1981)]. […] The assay is carried out as follows: Peritoneal PMN are obtained from female Wistar rats (150-250 g) that received an i.p. injection of 6% glycogen (10 ml). After 24 hours, rats are killed by CO2 asphyxiation and peritoneal cells are harvested by peritoneal lavage using Ca^++ and Mg^++ free Hanks' balanced salt solution (HBSS). The peritoneal exudate is centrifuged at 400 g for 10 minutes. […] To 1 ml portions of cell suspension, test drugs or vehicle are added and incubated at 37° C. for 10 minutes. […] The reaction is stopped by the addition of ice cold water (3 ml) and acidifying to pH 3.5. Lipoxygenase products are then extracted twice into diethyl ether.

[2] = tested on: synthesis of LTB4 by rat glycogen-elicited polymorphonuclear leukocytes (lipoxygenase); assay: inhibition of LTB4 (5,12-diHETE) synthesis by rat glycogen-elicited polymorphonuclear leukocytes; format: cell-based, rat (female Wistar); details: Leukocyte, read-out: 50% Inhibitory Concentration (IC50) LTB4; rat peritoneal PMN, A23187 10 μM, [14C]arachidonic acid, 10 min preincubation at 37° C.
Protocol: as §1

[3] = tested on: ovalbumin induced bronchospasm mediated by endogenous products of the lipoxygenase oxidation of arachidonic acid; assay: in vivo inhibition of ovalbumin induced bronchospasm in guinea pigs by endogenous mediators; design: species or system guinea pig (male Hartley); details: 50 mg/kg intraduodenal, 10 minutes before ovalbumin challenge, indomethacin and chlorpheniramine pretreated
Protocol: The assay of this Example measures the in vivo ability of the compounds of the invention to inhibit the bronchospasm induced in guinea pigs by endogenous mediators of the bronchoconstriction.
The assay is carried out as follows:
Male Hartley strain guinea pigs weighing 350-600 g are sensitized to ovalbumin (OA) (5 mg i.p. and 5 mg s.c.) on day 0. Three to five weeks later, the animals are anesthetized with pentobarbital sodium (50 mg/kg, i.p.). The jugular vein is cannulated for injection of drugs and the carotid artery for monitoring blood pressure. The trachea is cannulated for artificial ventilation by miniature Staring pump and for indirect measurement of respiratory volume changes as described, infra. Additional pentobarbital sodium (15 mg/kg, i.v.) is administered to arrest spontaneous respiration. A cyclooxygenase inhibitor, indomethacin (10 mg/kg in tris buffer, i.v. at 9 min.) is administered to shunt arachidonic metabolism to lipoxygenase pathways. One minute later, chlorpheniramine (1.0 mg/kg in saline, i.v.) is given to attenuate the histaminic component of anaphylactic bronchoconstriction. Test drugs are administered either intravenously, intraduodenally or by aerosol at 2 or 10 minutes before antigen challenge. Anaphylactic bronchoconstriction is induced by administration of aerosolized OA (1%). Aerosols of OA or soluble drug are produced in-line for 10 seconds only by actuation of an ultrasonic nebulizer (Monaghan). Aerosolized drug dosage is expressed in terms of solution concentration and by a fixed aerosol exposure time (approximately10 seconds). Control animals receive saline in place of drug.
(§2) Respiratory volume changes are determined by a calibrated piston whose travel is recorded, via a linear transducer, on a Beckman Dynograph recorder. Maximal bronchoconstrictor volume is determined by clamping off the trachea at the end of the experiment. Overflow volumes at minutes 1, 3 and 5 are obtained from the recorded charts.
The overflow volume at 1, 3 and 5 minutes is expressed as a percentage of maximal bronchoconstriction. Combined group values are used from each of these time intervals to determine the inhibitory effect of drugs. [formula] Students t-test for unpaired data is used to determine statistical significance. Dose response curves are generated and ED50 doses are interpolated from the regression lines.
The results for three compounds of the invention, with administration of the compounds at 10 minutes before ovalbumin challenge are presented below: […]

[4] = tested on: LTD4 induced bronchoconstriction; assay: in vivo inhibition of bronchospasm induced in guinea pigs by exogenously administered leukotriene (LTD4); design: species or system guinea pig (male Hartley); details: 50 mg/kg intraduodenal, 10 minutes before induction of bronchospasm by LTD4
Protocol: The assay of this Example measures the in vivo ability of the compounds of the invention to inhibit the bronchospasm induced in guinea pigs by the exogenously administered leukotrienes C4 and/or D4. This assay is essentially a measure of the SRS-A antagonist properties of the compounds tested.
This assay is carried out as follows:
Male Hartley strain guinea pigs (350-600 g) are anesthetized with pentobarbital sodium (50 mg/kg, i.p.). The jugular vein is cannulated for injection of drugs and the carotid artery for monitoring blood pressure. The trachea is cannulated for artificial ventilation by a miniature Starling pump and for indirect measurement of respiratory volume changes as described infra. Additional pentobarbital sodium (15 mg/kg, i.v.) is administered to arrest spontaneous respiration. Submaximal bronchoconstrictor responses are established in control animals by varying the dose-levels of leukotriene. Intravenous dose-levels for LTC4 range from 1 to 2 μg/kg and for LTD4 the range is from 0.3 to 1 μg/kg. The aerosol bronchoprovocation dose for LTC4 is generated from 1.6 μM solution and for LTD4 from a 2.0 μM solution.
Test drugs are administered either intravenously, intraduodenally, by aerosol or orally at 1 or 10 minutes before induction of bronchospasm by administration of either LTC4 or LTD4 at the predetermined dose-levels. Aerosols of soluble drugs or leukotrienes are produced in-line for 10 seconds only by actuation of an ultrasonic nebulizer (Monaghan). Aerosolized drug dosage is expressed in terms of solution concentration and by a fixed aerosol exposure time (approximately 10 seconds). Control animals receive saline in place of drug.
as §2, with “at” for “at minutes”, “5 minutes” for “5”
The overflow volume at 1, 3 and 5 minutes is expressed as a percentage of maximal bronchoconstriction. […]

NC1=NN(c2cccc(C(F)(F)F)c2)CC1 [BW755C, reference compound]
IC50 [1]: 43 µM | IC50 [2]: 30 µM

COC(=O)CC(=O)Nc1cccc(COc2ccc(C(C)=O)c(O)c2)c1 [Example 1, 3-[[3-[(4-acetyl-3-hydroxyphenoxy)methyl]phenyl]amino]-3-oxopropanoic acid, methyl ester]
% Inhibition Overflow Volume at 1 min. [3]: 99% | % Inhibition Overflow Volume at 3 min. [3]: 77% | % Inhibition Overflow Volume at 5 min. [3]: 63% | IC50 [1]: 14.2 µM | IC50 [2]: 11.7 µM | % Inhibition Overflow Volume at 1 min. ([4]; 1 min.): 25% | % Inhibition Overflow Volume at 3 min. ([4]; 3 min.): 48% | % Inhibition Overflow Volume at 5 min. ([4]; 5 min.): 56%

COC(=O)CCC(=O)Nc1cccc(COc2ccc(C(C)=O)c(O)c2)c1 [Example 2, 4-[[3-[(4-acetyl-3-hydroxyphenoxy)methyl]phenyl]amino]-4-oxobutanoic acid, methyl ester]
% Inhibition Overflow Volume at 1 min. [3]: 93% | % Inhibition Overflow Volume at 3 min. [3]: 24% | % Inhibition Overflow Volume at 5 min. [3]: 35%

COC(=O)CC(=O)Nc1cccc(COc2ccc(C(C)=O)c(OC)c2)c1 [Example 4, 3-[[3-[(4-acetyl-3-methoxyphenoxy)methyl]phenyl]amino]-3-oxopropanoic acid, methyl ester]
% Inhibition Overflow Volume at 1 min. [3]: 88% | % Inhibition Overflow Volume at 3 min. [3]: 67% | % Inhibition Overflow Volume at 5 min. [3]: 46%

CCCCCC(=O)c1ccc(OCc2cccc(NC(=O)CCC(=O)OC)c2)cc1OC [Example 6c, 4-[[3-[[3-methoxy-4-(1-oxohexyl)phenoxy]methyl]phenyl]amino]-4-oxobutanoicacid, methyl ester]
IC50 [1]: 3.71 µM | IC50 [2]: 3.87 µM

CCc1ccc(OCc2cccc(NC(=O)CCC(=O)OC)c2)cc1OC [Example 7, 4-[[3-[(4-ethyl-3-methoxyphenoxy)methyl]phenyl]amino]-4-oxobutanoic acid, methyl ester]
IC50 [1]: 5.6 µM | IC50 [2]: 7.09 µM

CCCCCCc1ccc(OCc2cccc(NC(=O)CC(=O)OC)c2)cc1OC [Example 8b, 3-[[3-[(4-hexyl-3-methoxyphenoxy)methyl]phenyl]amino]-3-oxopropanoic acid, methyl ester]
IC50 [1]: 1.59 µM | IC50 [2]: 1.7 µM

Source: patent US4528392A, “Aromatic compounds as antiallergic agents” (American Home Products Corporation, priority 1984, dated 1985)
